Assay results reported in patent US10647718B2, “Compounds and use thereof in the expansion of hematopoietic stem cells and/or hematopoietic progenitor cells” (UNIVERSITÉ DE MONTRÉAL, priority 2014, dated 2020).

test system: CD34+CD45RA− cell; assay: Hematopoietic stem cell expansion assay (CD34+CD45RA− cell count versus DMSO vehicle cultures); type: cell-based; settings: Homo sapiens, concentration that results in a 50% increase in CD34+CD45RA− cell count compared to vehicle cultures (DMSO), Table 1, pyridopyrrolopyrimidine series, read-out: Biological data EC50
Protocol: As used herein, the term “EC50” is intended to mean the concentration that results in a 50% increase in CD34+CD45RA− cell count compared to vehicle cultures (DMSO).
Screening Assay: screening assays were conducted as described in the inventors' previous patent application, WO 2013/110198.
The following biological assays were used to assess the effect of the compounds of the invention on hematopoietic stem cell expansion The results are illustrated in FIGS. 1 to 6. Culture medium: The culture medium used consisted of serum-free medium supplemented with the following recombinant cytokines: interleukin-6, thrombopoietin, Flt-3 ligand, and stem cell factor, each at a final concentration of 100 ng/ml, in the presence of vehicle (DMSO), positive control (SR1), or compound of the invention or a combination of compounds. Cell Culture: CD34+ cell purity of initial harvests was higher than 90%, as determined by flow cytometry. The CD34+ CD45RA− subpopulation reached purity levels higher than 70%. Cells were plated at 40,000 cells/ml and incubated for 7 to 12-days at 37° C. in 5% CO2. For long term cultures, 200,000 CD34+cells/ml from mobilized PB were plated with serum free media supplemented with interleukin-6, thrombopoietin, Flt3 ligand, and stem cell factor, each at a final concentration of 100 ng/ml, in the presence of vehicle (DMSO), positive control, or a compound of the invention at 500 nM.

| Compound | EC50 [µM] |
| --- | --- |
| COC(=O)c1cnc2c(c1)[nH]c1nc(Cc3ccsc3)nc(SCCCN3CCCCC3)c12 [Compound 3, methyl 4-((3-(piperidin-1-yl)propyl)thio)-2-(thiophen-3-ylmethyl)-9H-pyrido[2′,3′:4,5]pyrrolo[2,3-d]pyrimidine-7-carboxylate] | 0.5 to 1 |
| COC(=O)c1cnc2c(c1)[nH]c1nc(Cc3ccccc3)nc(NCC(C)CN(C)C)c12 (stereo not shown) [Compound 14, methyl 2-benzyl-4-((3-(dimethylamino)-2-methylpropyl)amino)-9H-pyrido[2′,3′:4,5]pyrrolo[2,3-d]pyrimidine-7-carboxylate] | 0.5 to 1 |
| COC(=O)c1cnc2c(c1)[nH]c1nc(Cc3cccc(F)c3)nc(NCCCN(C)CCCN)c12 [Compound 12, methyl 4-((3-((3-aminopropyl)(methyl)amino)propyl)amino)-2-(3-fluorobenzyl)-9H-pyrido[2′,3′:4,5]pyrrolo[2,3-d]pyrimidine-7-carboxylate] | 0.25 to 0.5 |
| CNCCCNc1nc(Cc2ccccc2C)nc2[nH]c3cc(C(=O)OC)cnc3c12 [Compound 9, methyl 4-((3-(methylamino)propyl)amino)-2-(2-methylbenzyl)-9H-pyrido[2′,3′:4,5]pyrrolo[2,3-d]pyrimidine-7-carboxylate] | 0.5 to 1 |
| COC(=O)c1cnc2c(c1)[nH]c1nc(Cc3cccc(F)c3)nc(NCCCN3CCCCC3)c12 [Compound 11, methyl 2-(3-fluorobenzyl)-4-((3-(piperidin-1-yl)propyl)amino)-9H-pyrido[2′,3′:4,5]pyrrolo[2,3-d]pyrimidine-7-carboxylate] | > 1 |
| CNCCCNc1nc(Cc2cccc(F)c2)nc2[nH]c3cc(C(=O)OC)cnc3c12 [Compound 13] | > 1 |
| COC(=O)c1cnc2c(c1)[nH]c1nc(Cc3ccsc3)nc(NCCCN3CCCCC3)c12 [Compound 2, methyl 4-((3-(piperidin-1-yl)propyl)amino)-2-(thiophen-3-ylmethyl)-9H-pyrido[2′,3′:4,5]pyrrolo[2,3-d]pyrimidine-7-carboxylate] | 0.25 to 0.5 |
| CCN(CC)CCN(CC)c1nc(Cc2ccccc2)nc2[nH]c3cc(C(=O)OC)cnc3c12 [Compound 16, methyl 2-benzyl-4-((2-(diethylamino)ethyl)(ethyl)amino)-9H-pyrido[2′,3′:4,5]pyrrolo[2,3-d]pyrimidine-7-carboxylate] | 0.25 to 0.5 |
| COC(=O)c1cnc2c(c1)[nH]c1nc(Cc3ccccc3)nc(NCCCN3CCCCC3)c12 [Compound 1, methyl 2-benzyl-4-((3-(piperidin-1-yl)propyl)amino)-9H-pyrido[2′,3′:4,5]pyrrolo[2,3-d]pyrimidine-7-carboxylate] | 0.25 to 0.5 |
| COC(=O)c1cnc2c(c1)[nH]c1nc(Cc3ccccc3C)nc(NCCCN3CCCC3)c12 [Compound 8, methyl 2-(2-methylbenzyl)-4-((3-(pyrrolidin-1-yl)propyl)amino)-9H-pyrido[2′,3′:4,5]pyrrolo[2,3-d]pyrimidine-7-carboxylate] | 0.25 to 0.5 |

Next, values leading:

| EC50 [µM] | Compound |
| --- | --- |
| 0.1 to 0.25 | COC(=O)c1cnc2c(c1)[nH]c1nc(Cc3ccccc3)nc(N3CCC(N(C)C)CC3)c12 [Compound 15, methyl 2-benzyl-4-(4-(dimethylamino)piperidin-1-yl)-9H-pyrido[2′,3′:4,5]pyrrolo[2,3-d]pyrimidine-7-carboxylate] |
| 0.25 to 0.5 | COC(=O)c1cnc2c(c1)[nH]c1nc(Cc3ccccc3C)nc(NCCCN3CCCCC3)c12 [Compound 7, methyl 2-(2-methylbenzyl)-4-((3-(piperidin-1-yl)propyl)amino)-9H-pyrido[2′,3′:4,5]pyrrolo[2,3-d]pyrimidine-7-carboxylate] |
| 0.5 to 1 | CCN(CC)CCNc1nc(Cc2cccc(OC)c2)nc2[nH]c3cc(C(=O)OC)cnc3c12 [Compound 5, methyl 4-((2-(diethylamino)ethyl)amino)-2-(3-methoxybenzyl)-9H-pyrido[2′,3′:4,5]pyrrolo[2,3-d]pyrimidine-7-carboxylate] |
| 0.25 to 0.5 | Cn1nnc(-c2cnc3c(c2)[nH]c2nc(Cc4ccccc4)nc(N[C@H]4CC[C@H](N)CC4)c23)n1 [Compound 10, (1R,4R)—N^1-(2-benzyl-7-(2-methyl-2H-tetrazol-5-yl)-9H-pyrido[2′,3′:4,5]pyrrolo[2,3-d]pyrimidin-4-yl)cyclohexane-1,4-diamine] |
| < 0.1 | COC(=O)c1cnc2c(c1)[nH]c1nc(Cc3ccccc3)nc(N(C)CCCN3CCCCC3)c12 [Compound 6, methyl 2-benzyl-4-(methyl(3-(piperidin-1-yl)propyl)amino)-9H-pyrido[2′,3′:4,5]pyrrolo[2,3-d]pyrimidine-7-carboxylate] |
| 0.25 to 0.5 | COC(=O)c1cnc2c(c1)[nH]c1nc(Cc3cccc(OC)c3)nc(NCCCN3CCCCC3C)c12 (stereo not shown) [Compound 4, methyl 2-(3-methoxybenzyl)-4-((3-(2-methylpiperidin-1-yl)propyl)amino)-9H-pyrido[2′,3′:4,5]pyrrolo[2,3-d]pyrimidine-7-carboxylate] |

same assay, conditions: Homo sapiens, concentration that results in a 50% increase in CD34+CD45RA− cell count compared to vehicle cultures (DMSO), Table 1′, pyrido[4,3-b]indole series, read-out: Biological data EC50

| Compound | EC50 [µM] |
| --- | --- |
| CNCCCN(C)c1nc(Cc2cccnc2)cc2[nH]c3cc(C(=O)OC)ccc3c12 [12′, methyl 1-(methyl(3-(methylamino)propyl)amino)-3-(pyridin-3-ylmethyl)-5H-pyrido[4,3-b]indole-7-carboxylate] | > 1 |
| COC(=O)c1ccc2c(c1)[nH]c1cc(Cc3cccnc3)nc(NCCCN3CCOCC3)c12 [9′, methyl 1-((3-morpholinopropyl)amino)-3-(pyridin-3-ylmethyl)-5H-pyrido[4,3-b]indole-7-carboxylate] | 0.5 to 1 |
| COC(=O)c1ccc2c(c1)[nH]c1cc(Cc3cccc(O)c3)nc(NCCCCN3CCCC3)c12 [7′, methyl 3-(3-hydroxybenzyl)-1-((4-(pyrrolidin-1-yl)butyl)amino)-5H-pyrido[4,3-b]indole-7-carboxylate] | < 0.1 |
| COC(=O)c1ccc2c(c1)[nH]c1cc(Cc3ccccc3)nc(N(C)CCCN(C)C)c12 [4′, methyl 3-benzyl-1-((3-(dimethylamino)propyl)(methyl)amino)-5H-pyrido[4,3-b]indole-7-carboxylate] | < 0.1 |
| COC(=O)c1ccc2c(c1)[nH]c1cc(Cc3ccsc3)nc(NCCN(C)CCNC(=O)OC(C)(C)C)c12 [8′, methyl 1-((2-((2-((tert-butoxycarbonyl)amino)ethyl)(methyl)amino)ethyl)amino)-3-(thiophen-3-ylmethyl)-5H-pyrido[4,3-b]indole-7-carboxylate] | > 1 |
| COC(=O)c1ccc2c(c1)[nH]c1cc(Cc3ccsc3)nc(NCCC[N+]3(CC(N)=O)CCCCC3)c12 [15′, 1-(2-amino-2-oxoethyl)-1-(3-((7-(methoxycarbonyl)-3-(thiophen-3-ylmethyl)-5H-pyrido[4,3-b]indol-1-yl)amino)propyl)piperidin-1-ium iodide] | < 0.1 |
| COC(=O)c1ccc2c(c1)[nH]c1cc(Cc3ccccc3)nc(NCCCN3CCCCC3)c12 [2′, methyl 3-benzyl-1-((3-(piperidin-1-yl)propyl)amino)-5H-pyrido[4,3-b]indole-7-carboxylate] | < 0.1 |
| Cn1nnc(-c2ccc3c(c2)[nH]c2cc(Cc4ccccc4)nc(NCCCN4CCCCC4)c23)n1 [5′, 3-benzyl-7-(2-methyl-2H-tetrazol-5-yl)-N-(3-(piperidin-1-yl)propyl)-5H-pyrido[4,3-b]indol-1-amine] | 0.1 to 0.25 |
| COC(=O)c1ccc2c(c1)[nH]c1ccnc(NCCCN3CCCCC3)c12 [1′, methyl 1-((3-(piperidin-1-yl)propyl)amino)-5H-pyrido[4,3-b]indole-7-carboxylate] | > 1 |

Results, then the compound that gave them:

| EC50 [µM] | Compound |
| --- | --- |
| 0.1 to 0.25 | COC(=O)c1ccc2c(c1)[nH]c1cc(Cc3ccsc3)nc(N[C@H]3CC[C@H](N)CC3)c12 [13′, methyl 1-(((1r,4r)-4-aminocyclohexyl)amino)-3-(thiophen-3-ylmethyl)-5H-pyrido[4,3-b]indole-7-carboxylate] |
| > 1 | COC(=O)c1ccc2c(c1)[nH]c1cc(Cc3cccnc3)nc(N3CCC(N4CCCC4)CC3)c12 [11′, methyl 3-(pyridin-3-ylmethyl)-1-(4-(pyrrolidin-1-yl)piperidin-1-yl)-5H-pyrido[4,3-b]indole-7-carboxylate] |
| 0.25 to 0.5 | COC(=O)c1ccc2c(c1)[nH]c1cc(Cc3ccsc3)nc(NCCN(C)CCN)c12 [14′, methyl 1-((2-((2-aminoethyl)(methyl)amino)ethyl)amino)-3-(thiophen-3-ylmethyl)-5H-pyrido[4,3-b]indole-7-carboxylate] |
| 0.1 to 0.25 | COC(=O)c1ccc2c(c1)[nH]c1cc(Cc3ccsc3)nc(NCCCN3CCCCC3)c12 [10′, methyl 1-((3-(piperidin-1-yl)propyl)amino)-3-(thiophen-3-ylmethyl)-5H-pyrido[4,3-b]indole-7-carboxylate] |
| < 0.1 | COC(=O)c1ccc2c(c1)[nH]c1cc(Cc3ccccc3)nc(NCCN3CCCC3)c12 [3′, methyl 3-benzyl-1-((2-(pyrrolidin-1-yl)ethyl)amino)-5H-pyrido[4,3-b]indole-7-carboxylate] |
| < 0.1 | COC(=O)c1ccc2c(c1)[nH]c1cc(Cc3cccc(OC)c3)nc(NCCCCN3CCCC3)c12 [6′, methyl 3-(3-methoxybenzyl)-1-((4-(pyrrolidin-1-yl)butyl)amino)-5H-pyrido[4,3-b]indole-7-carboxylate] |
